Data as given in publication PMC10975527 (Viruses, 2024).
pEC50, pIC50: −log10 of the molar value. Values after ≈ are worked out from the molar mass of the structure shown.

What was measured:
in vitro [1] = type: in vitro ADME; conditions: monkey, plasma
in vitro [2] = conditions: monkey
in vitro [3] = type: in vitro ADME; conditions: rat, plasma
[4] = mouse, in vivo
HBV = experiment: Effective concentration mediating 90% inhibition (EC90), system not given; type: cell-based; conditions: Hepatitis B virus; used for comparison with unbound concentrations; cell system not stated
[5] = test system: panel of RNA and DNA viruses; experiment: Antiviral selectivity against a panel of RNA and DNA viruses (summary); type: cell-based
in vitro [6] = type: in vitro ADME; conditions: human
HSV-1/HSV-2 = experiment: Antiviral selectivity panel: HSV-1/HSV-2; type: cell-based, herpes simplex virus-1/herpes simplex virus-2; conditions: MRC5; MRC-5 (human lung)
Beagle dogs = experiment: 13-week repeat-dose toxicity study in dogs; type: in vivo; set-up: key to Testis: Degeneration/Atrophy, Minimal, incidence / Testis: Degeneration/Atrophy, Mild, incidence / Testis: Degeneration/Atrophy, Moderate, incidence / Epididymis: Cellular debris, Minimal, incidence / Epididymis: Cellular debris, Mild, incidence / Epididymis: Cellularity, decreased; sperm, Minimal, incidence / Epididymis: Cellularity, decreased; sperm, Mild, incidence / Epididymis: Cellularity, decreased; sperm, Marked, incidence: - = no AB-161-related findings
DENV2 = experiment: Antiviral selectivity panel: DENV2; type: cell-based, dengue virus type 2; conditions: Dengue virus, DENV2, BHK-21, in Mesocricetus auratus; BHK21 (hamster kidney)
[7] = Tolerability in AAV-HBV mice; conditions: once-daily dosing for 14 days
HCMV = experiment: Antiviral selectivity panel: HCMV; type: cell-based, human cytomegalovirus; conditions: Human betaherpesvirus 5, MRC5; MRC-5 (human lung)
recombinant human PAPD5 = target: T1, recombinant human PAPD5 (Homo sapiens, UniProt Q8NDF8); experiment: PAPD5 ATP depletion assay; type: biochemical; conditions: 12.5 nM enzyme, 750 nM ATP, 3 h, mean of 3 experiments; read-out: IC50, PAPD5-mediated incorporation of ATP
T1 construct: made in house
T1 sequence (Q8NDF8 106-438 limits assumed): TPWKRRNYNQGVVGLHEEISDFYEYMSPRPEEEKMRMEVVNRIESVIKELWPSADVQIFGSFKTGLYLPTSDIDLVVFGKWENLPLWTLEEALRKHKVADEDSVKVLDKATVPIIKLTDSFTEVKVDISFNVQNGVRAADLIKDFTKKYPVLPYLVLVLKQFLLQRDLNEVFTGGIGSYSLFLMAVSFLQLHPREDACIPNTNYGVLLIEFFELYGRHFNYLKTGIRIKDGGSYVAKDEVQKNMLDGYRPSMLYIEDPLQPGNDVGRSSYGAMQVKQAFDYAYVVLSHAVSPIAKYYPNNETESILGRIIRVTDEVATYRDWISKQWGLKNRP

[8] = male dogs, 10 mg/kg/day, end of main study (days 97–100)
[9] = male dogs, 10 mg/kg/day, end of main study, 4 examined
[10] = male dogs, 30 mg/kg/day, end of main study (days 97–100)
[11] = male dogs, 30 mg/kg/day, end of main study, 3 examined
[12] = male dogs, 100 mg/kg/day, end of main study (days 97–100)
[13] = male dogs, 100 mg/kg/day, end of main study, 4 examined
[14] = male dogs, 100 mg/kg/day, end of recovery (Day 120)
[15] = male dogs, 100 mg/kg/day, end of recovery (Day 120), 2 examined

COc1cc(OC(F)F)c2nc3c(n2c1)C[C@@H](C(C)(C)C)c1cc(C(=O)O)c(=O)[nH]c1-3 [AB-161]
fraction unbound at 6 h, 500 ng/mL (in vitro [1]): 0.02 | CC50 (in vitro [2]): > 30 µM | fraction unbound at 6 h, 500 ng/mL (in vitro [3]): 0.056 | liver and kidney function markers (ALT, creatinine) [4]: no significant changes | EC90 (HBV): 0.0128 µg/mL (≈ 0.0295 µM) | selectivity for HBV ([5]; HBV vs panel of RNA and DNA viruses): > 10,000 fold | activity against a panel of RNA and DNA viruses ([5]; all ten viruses, up to the highest concentration tested at 30 μM): inactive | plasma protein binding, bound (in vitro [6]; 6 h, 500 ng/mL): 95% | fraction unbound at 6 h, 500 ng/mL (in vitro [6]; plasma, plasma protein binding, bound): 0.049 | pEC50 (HSV-1/HSV-2): < 4.52 | motor nerve conduction (Beagle dogs; dogs): No differences from baseline or time-matched controls | animals with persisting peroneal sensory NCV delays (Beagle dogs; dogs, 100 mg/kg/day recovery cohort, day 119): 2 of 4 | animals with peroneal sensory NCV delays (Beagle dogs; dogs, 100 mg/kg/day, days 71 to 72): 4 of 12 | food consumption, electrocardiography, neurological examinations, urinalysis (Beagle dogs; dogs, 10, 30, or 100 mg/kg/day): no AB-161-related effects | reproductive safety findings (Beagle dogs; female dogs, 13-week administration, all doses): no reproductive safety findings | Testis: Degeneration/Atrophy, incidence (Beagle dogs; male dogs, 10 mg/kg/day, end of main study (day 97–100), 4 examined): 0 | Testis weight, % of body weight (Beagle dogs; [8]): −9.38 percent difference from the control group means | Testis weight, % of brain weight (Beagle dogs; [8]): −16.13 percent difference from the control group means | Testis weight, absolute value (Beagle dogs; [8]): −18.03 percent difference from the control group means | Epididymis: Cellular debris, Mild, incidence (Beagle dogs; [9]): - | Epididymis: Cellular debris, Minimal, incidence (Beagle dogs; [9]): - | Epididymis: Cellular debris, incidence (Beagle dogs; [9]): 0 | Epididymis: Cellularity, decreased; sperm, Marked, incidence (Beagle dogs; [9]): - | Epididymis: Cellularity, decreased; sperm, Mild, incidence (Beagle dogs; [9]): - | Epididymis: Cellularity, decreased; sperm, Minimal, incidence (Beagle dogs; [9]): - | Epididymis: Cellularity, decreased; sperm, incidence (Beagle dogs; [9]): 0 | Testis: Degeneration/Atrophy, Mild, incidence (Beagle dogs; [9]): - | Testis: Degeneration/Atrophy, Minimal, incidence (Beagle dogs; [9]): - | Testis: Degeneration/Atrophy, Moderate, incidence (Beagle dogs; [9]): - | Testis weight, % of body weight (Beagle dogs; [10]): −21.93 percent difference from the control group means | Testis weight, % of brain weight (Beagle dogs; [10]): −30.73 percent difference from the control group means | Testis weight, absolute value (Beagle dogs; [10]): −34.17 percent difference from the control group means | Epididymis: Cellular debris, Mild, incidence (Beagle dogs; [11]): 2 | Epididymis: Cellular debris, Minimal, incidence (Beagle dogs; [11]): 0 | Epididymis: Cellular debris, incidence (Beagle dogs; [11]): 2 | Epididymis: Cellularity, decreased; sperm, Marked, incidence (Beagle dogs; [11]): 0 | Epididymis: Cellularity, decreased; sperm, Mild, incidence (Beagle dogs; [11]): 2 | Epididymis: Cellularity, decreased; sperm, Minimal, incidence (Beagle dogs; [11]): 0 | Epididymis: Cellularity, decreased; sperm, incidence (Beagle dogs; [11]): 2 | Testis: Degeneration/Atrophy, Mild, incidence (Beagle dogs; [11]): 1 | Testis: Degeneration/Atrophy, Minimal, incidence (Beagle dogs; [11]): 1 | Testis: Degeneration/Atrophy, Moderate, incidence (Beagle dogs; [11]): 0 | Testis: Degeneration/Atrophy, incidence (Beagle dogs; [11]): 2 | Testis weight, % of body weight (Beagle dogs; [12]): −12.18 percent difference from the control group means | Testis weight, % of brain weight (Beagle dogs; [12]): −16.10 percent difference from the control group means | Testis weight, absolute value (Beagle dogs; [12]): −20.62 percent difference from the control group means | Epididymis: Cellular debris, Mild, incidence (Beagle dogs; [13]): 2 | Epididymis: Cellular debris, Minimal, incidence (Beagle dogs; [13]): 2 | Epididymis: Cellular debris, incidence (Beagle dogs; [13]): 4 | Epididymis: Cellularity, decreased; sperm, Marked, incidence (Beagle dogs; [13]): 1 | Epididymis: Cellularity, decreased; sperm, Mild, incidence (Beagle dogs; [13]): 2 | Epididymis: Cellularity, decreased; sperm, Minimal, incidence (Beagle dogs; [13]): 1 | Epididymis: Cellularity, decreased; sperm, incidence (Beagle dogs; [13]): 4 | Testis: Degeneration/Atrophy, Mild, incidence (Beagle dogs; [13]): 1 | Testis: Degeneration/Atrophy, Minimal, incidence (Beagle dogs; [13]): 2 | Testis: Degeneration/Atrophy, Moderate, incidence (Beagle dogs; [13]): 1 | Testis: Degeneration/Atrophy, incidence (Beagle dogs; [13]): 4 | Testis weight, % of body weight (Beagle dogs; [14]): −37.79 percent difference from the control group means | Testis weight, % of brain weight (Beagle dogs; [14]): −43.49 percent difference from the control group means | Testis weight, absolute value (Beagle dogs; [14]): −42.84 percent difference from the control group means | Epididymis: Cellular debris, Mild, incidence (Beagle dogs; [15]): (2) 2 2 2 2 | Epididymis: Cellular debris, incidence (Beagle dogs; [15]): (2) 2 2 2 2 | Epididymis: Cellularity, decreased; sperm, Moderate, incidence (Beagle dogs; [15]): (2) 2 2 2 2 | Epididymis: Cellularity, decreased; sperm, incidence (Beagle dogs; [15]): (2) 2 2 2 2 | Testis: Degeneration/Atrophy, Moderate, incidence (Beagle dogs; [15]): (2) 2 2 | Testis: Degeneration/Atrophy, incidence (Beagle dogs; [15]): (2) 2 2 | testis microscopic finding (Beagle dogs; male dogs, 30 and 100 mg/kg/day at terminal euthanasia, persisted at end of recovery at 100 mg/kg/day): degeneration/atrophy in the testis was noted | pEC50 (DENV2): < 4.52 | tolerability [7]: well-tolerated | pEC50 (HCMV): < 4.52 | pIC50 (recombinant human PAPD5): 6.07
